Experimental data reported in US10376520B2, “Methods for the treatment of cardiovascular disorders” (Galapagos NV, priority 2015, dated 2019).

Tested on: RA patients
Experiment: LDL determination, Study 1 (RA patients, add-on to MTX)
Assay type: in vivo, human
Experimental: Double-blind, placebo-controlled add on study in subjects with moderately to severely active RA who have an inadequate response to methotrexate (MTX) (oral or parenteral).
595 subjects randomized to one of 6 dose regimens of Compound 1 (dosed as a [Compound 1:HCl:3H2O]) (3 dose levels administered either once or twice daily) or placebo on top of each subject's stable dose of MTX.
Compound 1 (dosed as a [Compound 1:HCl:3H2O]) is dosed for twelve weeks once daily (q.d.) (50 mg, 100 mg or 200 mg) or twice daily (b.i.d.) (25 mg, 50 mg or 100 mg); or placebo.
At Week 12, the subjects on placebo who have not achieved 20% improvement in swollen joint count (SJC66) and tender joint count (TJC68) are re-randomized automatically to receive Compound 1 (dosed as a [Compound 1:HCl:3H2O]) either at 100 mg q.d. or 50 mg b.i.d. doses in a blinded fashion; subjects on 50 mg q.d. who have not achieved 20% improvement in SJC66 and TJC68 will be assigned to 100 mg q.d. and subjects on 25 mg b.i.d. that have not achieved a 20% improvement in SJC66 and TJC68 will be assigned to 50 mg b.i.d. Subjects who switch treatment at week 12 are handled as if they discontinued at week 12 for the purpose of statistical analysis, whereas subjects in the other groups will maintain their randomized treatment until Week 24.
The determination of [LDL]-cholesterol is made using an automated method taking advantage of the selective micellary solubilization of [LDL]-cholesterol by a nonionic detergent and the interaction of a sugar compound and lipoproteins (VLDL and chylomicrons).
When a detergent is included in the enzymatic method for cholesterol determination (cholesterol esterase, cholesterol oxidase coupling reaction), the relative reactivities of cholesterol in the lipoprotein fractions increase in this order: [HDL]<chylomicrons <VLDL <[LDL]. In the presence of Mg^2+, a sugar compound markedly reduces the enzymatic reaction of the cholesterol measurement in VLDL and chylomicrons. The combination of a sugar compound with detergent enables the selective determination of [LDL]-cholesterol in serum. (Friedewald et al., 1972; Rifai et al., 1992)
Homogeneous enzymatic colorimetric assay.
In the presence of peroxidase, the hydrogen peroxide generated reacts with 4-aminoantipyrine and Sodium N-(2-hydroxy-3-sulfopropyl)-3,5-dimethoxyaniline (HSDA) to form a purple-blue dye.
The color intensity of this dye is directly proportional to the cholesterol concentration and is measured photometrically.
Human serum and plasma samples [LDL] determination was done on a Roche/Hitachi Cobas c 701/702 system which automatically calculate the analyte concentration of each sample. Samples containing precipitates are centrifuged before performing the assay.

[1] = Study 1 12 weeks results, 200 mg q.d., week 2
[2] = Study 1 12 weeks results, 200 mg q.d., week 4
[3] = Study 1 12 weeks results, 200 mg q.d., week 8
[4] = Study 1 12 weeks results, 200 mg q.d., week 12
[5] = Study 1 12 weeks results, 2 x 25 mg b.i.d., week 1
[6] = Study 1 12 weeks results, 2 x 25 mg b.i.d., week 2
[7] = Study 1 12 weeks results, 2 x 25 mg b.i.d., week 4
[8] = Study 1 12 weeks results, 2 x 25 mg b.i.d., week 8
[9] = Study 1 12 weeks results, 2 x 25 mg b.i.d., week 12
[10] = Study 1 12 weeks results, 2 x 50 mg b.i.d., week 1
[11] = Study 1 12 weeks results, 2 x 50 mg b.i.d., week 2
[12] = Study 1 12 weeks results, 2 x 50 mg b.i.d., week 4
[13] = Study 1 12 weeks results, 2 x 50 mg b.i.d., week 8
[14] = Study 1 12 weeks results, 2 x 50 mg b.i.d., week 12
[15] = Study 1 12 weeks results, 2 x 100 mg b.i.d., week 1
[16] = Study 1 12 weeks results, 2 x 100 mg b.i.d., week 2
[17] = Study 1 12 weeks results, 2 x 100 mg b.i.d., week 4
[18] = Study 1 12 weeks results, 2 x 100 mg b.i.d., week 8
[19] = Study 1 12 weeks results, 2 x 100 mg b.i.d., week 12
[20] = Study 1 24 weeks results, continued 50 mg q.d., week 1
[21] = Study 1 24 weeks results, continued 50 mg q.d., week 2
[22] = Study 1 24 weeks results, continued 50 mg q.d., week 4
[23] = Study 1 24 weeks results, continued 50 mg q.d., week 8
[24] = Study 1 24 weeks results, continued 50 mg q.d., week 12
[25] = Study 1 24 weeks results, continued 50 mg q.d., week 16

O=C(Nc1nc2cccc(-c3ccc(CN4CCS(=O)(=O)CC4)cc3)n2n1)C1CC1 [Compound 1, cyclopropanecarboxylic acid {5-[4-(1,1-dioxo-thiomorpholin-4-ylmethyl)-phenyl]-[1,2,4]triazolo[1,5-a]pyridin-2yl}-amide]
[LDL] Mean CFB [1]: 0.11 mmol/L
[LDL] Median CFB [1]: 0.13 mmol/L
[LDL] Mean CFB [2]: 0.13 mmol/L
[LDL] Median CFB [2]: 0.09 mmol/L
[LDL] Mean CFB [3]: 0.16 mmol/L
[LDL] Median CFB [3]: 0.18 mmol/L
[LDL] Mean CFB [4]: 0.19 mmol/L
[LDL] Median CFB [4]: 0.14 mmol/L
[LDL] Mean CFB [5]: 0.04 mmol/L
[LDL] Median CFB [5]: 0.05 mmol/L
[LDL] Mean CFB [6]: 0.04 mmol/L
[LDL] Median CFB [6]: 0.09 mmol/L
[LDL] Mean CFB [7]: -0.01 mmol/L
[LDL] Median CFB [7]: -0.01 mmol/L
[LDL] Mean CFB [8]: -0.05 mmol/L
[LDL] Median CFB [8]: 0.01 mmol/L
[LDL] Mean CFB [9]: 0.07 mmol/L
[LDL] Median CFB [9]: 0.05 mmol/L
[LDL] Mean CFB [10]: 0.10 mmol/L
[LDL] Median CFB [10]: 0.17 mmol/L
[LDL] Mean CFB [11]: 0.04 mmol/L
[LDL] Median CFB [11]: 0.1 mmol/L
[LDL] Mean CFB [12]: 0.14 mmol/L
[LDL] Median CFB [12]: 0.05 mmol/L
[LDL] Mean CFB [13]: 0.07 mmol/L
[LDL] Median CFB [13]: 0.10 mmol/L
[LDL] Mean CFB [14]: 0.05 mmol/L
[LDL] Median CFB [14]: 0.02 mmol/L
[LDL] Mean CFB [15]: 0.20 mmol/L
[LDL] Median CFB [15]: 0.18 mmol/L
[LDL] Mean CFB [16]: 0.15 mmol/L
[LDL] Median CFB [16]: 0.08 mmol/L
[LDL] Mean CFB [17]: 0.17 mmol/L
[LDL] Median CFB [17]: 0.12 mmol/L
[LDL] Mean CFB [18]: 0.31 mmol/L
[LDL] Median CFB [18]: 0.22 mmol/L
[LDL] Mean CFB [19]: 0.27 mmol/L
[LDL] Median CFB [19]: 0.26 mmol/L
[LDL] Mean CFB [20]: 0.00 mmol/L
[LDL] Median CFB [20]: -0.01 mmol/L
[LDL] Mean CFB [21]: -0.02 mmol/L
[LDL] Median CFB [21]: 0.02 mmol/L
[LDL] Mean CFB [22]: 0.02 mmol/L
[LDL] Median CFB [22]: -0.01 mmol/L
[LDL] Mean CFB [23]: 0.08 mmol/L
[LDL] Median CFB [23]: 0.13 mmol/L
[LDL] Mean CFB [24]: 0.16 mmol/L
[LDL] Median CFB [24]: 0.14 mmol/L
[LDL] Mean CFB [25]: 0.15 mmol/L
[LDL] Median CFB [25]: 0.12 mmol/L
